# Legend:
# [1] = Dissociation constant, pKa of the compound by capillary electrophoresis method; assay type: physicochemical
# [2] = Oral bioavailability in Sprague-Dawley rat at 10 mg/kg; assay type: ADME, organism-based; conditions: in vivo
# [3] = Kinetic solubility of the compound in simulated intestinal fluid; assay type: physicochemical; conditions: simulated gi fluid
# [4] = Volume of distribution at steady state in Sprague-Dawley rat at 0.5 mg/kg, iv; assay type: ADME, organism-based; conditions: in vivo, read-out: Vdss
SMILES,pKa [1],also measured
O=C(O)CNC(=O)c1cc(F)c(COc2ccc(Cl)c(Cl)c2)cc1F,3.4,–
O=S(=O)(CC1CC1)c1nnc(-c2cc(F)c(-c3cnc(Oc4ccccc4C(F)(F)F)c(Cl)c3)cc2F)[nH]1,–,bioavailability [2]: 140%; Kinetic solubility [3]: 101 µM; Vd [4]: 0.37 L/kg
O=C(O)c1cc(F)c(COc2ccc(Cl)c(Cl)c2)cc1F,3.1,–
CC(C)COc1ncc(-c2cc(F)c(-c3nnc(S(=O)(=O)C4CCC4)[nH]3)cc2F)cc1Cl,–,Vd [4]: 0.7 L/kg
CS(=O)(=O)NC(=O)c1cc(F)c(COc2ccc(Cl)c(Cl)c2)cc1F,3.1,–
CC(=O)NS(=O)(=O)c1cc(F)c(COc2ccc(Cl)c(Cl)c2)cc1F,3.7,–
CS(=O)(=O)c1nnc(-c2cc(F)c(COc3ccc(Cl)c(Cl)c3)cc2F)[nH]1,4.8,–
O=c1[nH]c(-c2cc(F)c(COc3ccc(Cl)c(Cl)c3)cc2F)no1,4.3,–
